Legend:
Type in all cases: biochemical
T4 DNA polymerase = target: T1, T4 DNA polymerase (Enterobacteria phage T4, UniProt P04415); test: DNA polymerase assay, T4 pol
T1 construct: purchased Takara (Kyoto, Japan)
T1 sequence (P04415 1-898): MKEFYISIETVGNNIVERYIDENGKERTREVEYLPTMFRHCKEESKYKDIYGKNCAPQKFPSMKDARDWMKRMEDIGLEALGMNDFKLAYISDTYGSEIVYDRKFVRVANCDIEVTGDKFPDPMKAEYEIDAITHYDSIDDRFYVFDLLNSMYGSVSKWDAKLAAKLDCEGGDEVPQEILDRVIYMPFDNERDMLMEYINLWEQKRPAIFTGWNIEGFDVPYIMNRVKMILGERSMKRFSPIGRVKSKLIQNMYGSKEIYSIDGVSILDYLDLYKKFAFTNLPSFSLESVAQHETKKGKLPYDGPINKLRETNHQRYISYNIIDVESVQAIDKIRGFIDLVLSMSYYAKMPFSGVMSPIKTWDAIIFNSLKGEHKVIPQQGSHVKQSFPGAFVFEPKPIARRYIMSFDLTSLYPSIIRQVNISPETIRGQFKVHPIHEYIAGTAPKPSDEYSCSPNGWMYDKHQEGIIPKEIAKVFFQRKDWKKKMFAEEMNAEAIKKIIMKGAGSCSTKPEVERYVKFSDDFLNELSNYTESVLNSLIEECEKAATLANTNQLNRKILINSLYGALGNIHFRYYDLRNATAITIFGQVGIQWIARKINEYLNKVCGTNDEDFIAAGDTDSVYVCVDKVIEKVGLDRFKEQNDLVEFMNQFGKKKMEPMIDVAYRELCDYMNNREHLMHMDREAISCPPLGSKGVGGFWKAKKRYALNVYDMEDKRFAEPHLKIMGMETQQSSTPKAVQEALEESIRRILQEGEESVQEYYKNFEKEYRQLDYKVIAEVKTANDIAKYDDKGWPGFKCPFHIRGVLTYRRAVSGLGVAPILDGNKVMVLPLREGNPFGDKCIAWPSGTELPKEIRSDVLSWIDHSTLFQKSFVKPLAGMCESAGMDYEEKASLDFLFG
Text: (§1) Pol α was purified from calf thymus by immuno-affinity column chromatography as described by Tamai et al.. Recombinant rat pol β was purified from E. coli JMpβ5 as described by Date et al.. The human pol γ catalytic gene was cloned into pFastBac. Histidine-tagged enzyme was expressed using the BAC-TO-BAC HT Baculovirus Expression System according to the supplier's manual (LIFE TECHNOLOGIES, MD, USA) and purified using ProBoundresin (Invitrogen Japan, Tokyo, Japan). Human pols δ and ε were purified by the nuclear fractionation of human peripheral blood cancer cells (Molt-4) using the second subunit of pols δ and ε-conjugated affinity column chromatography, respectively. Recombinant human pols η and ι tagged with His6 at their C-terminal were expressed in SF9 insect cells using the baculovirus expression system, and were purified as described previously. A truncated form of pol κ (i.e., hDINB1DC) with 6 x His-tags attached at the C-terminal was overproduced using the BAC-to-BAC Baculovirus Expression System kit (GIBCO BRL, MD, USA) and purified as described previously. […]
For pols, poly(dA)/oligo(dT)12-18 (A/T = 2/1) and dTTP were used as the DNA template-primer and nucleotide (i.e., dNTP) substrate, respectively. […] Activity without the inhibitor was considered 100%, and the remaining activity at each concentration of the inhibitor was determined relative to this value. […]

Rat DNA polymerase β = target: T2, Rat DNA polymerase β (Rattus norvegicus, UniProt P06766); test: DNA polymerase assay, rat pol β; details: for Inhibitory mode: Lineweaver Burk plot
T2 construct: made in house; host or cells: E. coli JMpβ5
Text: Pol α was purified from calf thymus by immuno-affinity column chromatography as described by Tamai et al.. Recombinant rat pol β was purified from E. coli JMpβ5 as described by Date et al.. The human pol γ catalytic gene was cloned into pFastBac. Histidine-tagged enzyme was expressed using the BAC-TO-BAC HT Baculovirus Expression System according to the supplier's manual (LIFE TECHNOLOGIES, MD, USA) and purified using ProBoundresin (Invitrogen Japan, Tokyo, Japan). Human pols δ and ε were purified by the nuclear fractionation of human peripheral blood cancer cells (Molt-4) using the second subunit of pols δ and ε-conjugated affinity column chromatography, respectively. Recombinant human pols η and ι tagged with His6 at their C-terminal were expressed in SF9 insect cells using the baculovirus expression system, and were purified as described previously. A truncated form of pol κ (i.e., hDINB1DC) with 6 x His-tags attached at the C-terminal was overproduced using the BAC-to-BAC Baculovirus Expression System kit (GIBCO BRL, MD, USA) and purified as described previously. Recombinant human His-pol λ was overexpressed and purified according to a method described previously. Fish pol δ was purified from the testis of cherry salmon (Oncorhynchus masou). Pol I (α-like) from a higher plant, cauliflower inflorescence, was purified according to the methods outlined by Sakaguchi et al.. The Klenow fragment of pol I from E. coli was purchased from Worthington Biochemical Corp. (Freehold, NJ, USA). Taq pol, T4 pol, T7 RNA polymerase and T4 polynucleotide kinase were purchased from Takara (Kyoto, Japan). Bovine pancreas deoxyribonuclease I (DNase I) was obtained from Stratagene Cloning Systems (La Jolla, CA, USA).
The reaction mixtures for pol α, pol β, fish pol δ, plant pol I (α-like) and prokaryotic pols were described previously, and those for pol γ, and pols δ and ε were as described by Umeda et al. and Ogawa et al., respectively. The reaction mixtures for pols η, ι and κ were the same as for pol α, and the reaction mixture for pol λ was the same as that for pol β.
For pols, poly(dA)/oligo(dT)12-18 (A/T = 2/1) and dTTP were used as the DNA template-primer and nucleotide (i.e., dNTP) substrate, respectively. KA-A analogues (i.e., compounds 1–12) were dissolved in distilled dimethyl sulfoxide (DMSO) at various concentrations and sonicated for 30 sec. Aliquots of 4 μL of sonicated samples were mixed with 16 μL of each enzyme (final amount 0.05 units) in 50 mM Tris-HCl (pH 7.5) containing 1 mM dithiothreitol, 50% glycerol and 0.1 mM EDTA, and kept at 0 °C for 10 min. These inhibitor-enzyme mixtures (8 μl) were added to 16 μL of each of the enzyme standard reaction mixtures, and incubation was carried out at 37 °C for 60 min, except for Taq pol, which was incubated at 74 °C for 60 min. Activity without the inhibitor was considered 100%, and the remaining activity at each concentration of the inhibitor was determined relative to this value. One unit of pol activity was defined as the amount of enzyme that catalyzed the incorporation of 1 nmol of dNTP (i.e., dTTP) into synthetic DNA template-primers in 60 min at 37 °C under the normal reaction conditions for each enzyme.

T4 Polynucleotide kinase = target: T3, T4 Polynucleotide kinase (Enterobacteria phage T4, UniProt P06855); test: T4 polynucleotide kinase assay
T3 construct: purchased Takara (Kyoto, Japan)
T3 sequence (P06855 whole entry): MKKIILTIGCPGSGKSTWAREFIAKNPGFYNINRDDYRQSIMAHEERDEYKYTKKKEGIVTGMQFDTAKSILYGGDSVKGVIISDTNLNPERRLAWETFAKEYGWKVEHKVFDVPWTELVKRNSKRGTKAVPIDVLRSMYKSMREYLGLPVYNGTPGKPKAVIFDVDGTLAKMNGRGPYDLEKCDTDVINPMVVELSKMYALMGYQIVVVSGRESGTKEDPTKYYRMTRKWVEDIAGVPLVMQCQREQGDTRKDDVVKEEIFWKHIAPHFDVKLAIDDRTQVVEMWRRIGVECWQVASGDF
Text: as §1
The primase activity of calf pol α, the activities of T7 RNA polymerase, T4 polynucleotide kinase and bovine DNase I were measured in standard assays according to the manufacturer's specifications as described by Tamiya-Koizumi et al., Nakayama et al., Soltis et al., and Lu and Sakaguchi, respectively.

SMILES: CC1=CC[C@H]2C(C)(C)CCC[C@]2(C)[C@H]1CCCCCCCCCCCCCCCCC(=O)O (relative stereo) [compound 11, (1S*,4aS*,8aS*)-17-(1,4,4a,5,6,7,8,8a-octahydro-2,5,5,8a-tetramethylnaphthalen-1-yl)heptadecanoic acid]
- IC50 (T4 DNA polymerase): > 200 µM
- Relative activity of pol β (Rat DNA polymerase β; 10 μM compound 11): 15.5 ± 0.78%
- Relative activity of pol β (Rat DNA polymerase β; 10 μM compound 11 + 50 μM poly (rC)): 15.2 ± 0.74%
- Relative activity of pol β (Rat DNA polymerase β; 10 μM compound 11 + 200 μg/ml BSA): 15.9 ± 1.1%
- Relative activity of pol β (Rat DNA polymerase β; 10 μM compound 11 + 0.05 % NP-40): 96.1 ± 7.6%
- Relative activity of pol β (Rat DNA polymerase β; 10 μM compound 11 + 0.1 % NP-40): 100 ± 8.8%
- Relative activity of pol β (Rat DNA polymerase β; 100 μM compound 11): 3.2 ± 0.16%
- Relative activity of pol β (Rat DNA polymerase β; 100 μM compound 11 + 50 μM poly (rC)): 3.1 ± 0.15%
- Relative activity of pol β (Rat DNA polymerase β; 100 μM compound 11 + 200 μg/ml BSA): 3.3 ± 0.19%
- Relative activity of pol β (Rat DNA polymerase β; 100 μM compound 11 + 0.05 % NP-40): 62.5 ± 4.1%
- Relative activity of pol β (Rat DNA polymerase β; 100 μM compound 11 + 0.1 % NP-40): 95.0 ± 7.6%
- Inhibitory effect on pol β compared with KA-A (Rat DNA polymerase β; 10 and 100 μM of compound (Figure 2B)): strongest inhibitory effect
- Ki (Rat DNA polymerase β; DNA template-primer poly(dA)/oligo(dT)12-18, Dixon plot): 1.96 µM
- Vmax (Rat DNA polymerase β; DNA template-primer poly(dA)/oligo(dT)12-18, unchanged at 0-9 μM compound 11): 111 pmol/h
- fold stronger pol β inhibitor than dideoxyTTP (Rat DNA polymerase β; comparison with dideoxyTTP): 4 fold
- Ki (Rat DNA polymerase β; nucleotide substrate dTTP, Dixon plot): 2.36 µM
- Vmax (Rat DNA polymerase β; nucleotide substrate dTTP, unchanged at 0-9 μM compound 11): 62.5 pmol/h
- IC50 (Rat DNA polymerase β; poly(dA)/oligo(dT)12-18 and dTTP, 0.05 units enzyme): 5.5 ± 0.28 µM
- Inhibitory mode (Rat DNA polymerase β; with respect to DNA template-primer): Competitive
- Inhibitory mode (Rat DNA polymerase β; with respect to dNTP substrate): Competitive
- IC50 (T4 Polynucleotide kinase): > 200 µM

— publication PMC6253949, “The Inhibitory Action of Kohamaic Acid A Derivatives on Mammalian DNA Polymerase β” (Molecules, 2008)
